Results as given in patent US20230212638A1 (priority 2020, published 2023).

Legend:
Assay type in all cases: cell-based
[1] = system: NBRC12993 (Staphylococcus epidermidis control strain); assay: Drug sensitivity of Staphylococcus epidermidis NBRC12993 by resonance frequency shift on GHz array sensor; settings: PIPC 10.0 μg/mL
Source text: By using NBRC12993 being a control strain of Staphylococcus epidermidis, the inventors conducted verification experiments of growth and drug sensitivity of Staphylococcus epidermidis by the test method above.
In this experiment, piperacillin (penicillin) being a time-dependent drug was used. That is, this drug exerts an inhibitory action on growth by retaining the effective drug concentration for a certain period of time. A control sample of NBRC12993 was mixed with piperacillin (PIPC) to prepare a sample for drug sensitivity evaluation at a […] concentration of 10.0 μg/mL (PIPC 10.0 μg/mL). Further, in order to verify the frequency shift of a killed bacterium, a sample was prepared by subjecting 200 μL of a control sample to heat treatment at 98° C. for 30 minutes.
The samples thus prepared were introduced into different containers 60, respectively, and the frequency shift was measured for each sample. In this case, capping solvent 300 was not added into each container 60. The temperatures of an incubator and a Peltier element during the measurement were set in a similar manner to Example 1 above. In analysis processing, frequency shifts of all the 1488 elements on array sensor 10 were measured every 10 seconds, the average value of the measured frequency shifts was calculated every 5 minutes, and extracted as the frequency shift at each timing of the measurement. In addition to this, in Example 3, a region where the growth of Staphylococcus epidermidis was observed was designated on the display image, and the average value of the frequency shifts in this growth region was calculated every 5 minutes. […]
Further, FIG. 12(b) is a display image showing a frequency shift of each element by color when a control sample to which PIPC was not added was measured at the time point after the lapse of 240 minutes, and FIG. 12(c) is a display image showing a frequency shift of each element by color when a sample for drug sensitivity evaluation to which PIPC was added (PIPC 10.0 μg/mL) was measured at the time point after the lapse of 240 minutes. […]

[2] = system: NBRC3301 (Escherichia coli control strain); assay: Drug sensitivity of Escherichia coli NBRC3301 by resonance frequency shift on GHz array sensor
Method: By using NBRC3301 as a control strain of Escherichia coli, the inventors conducted verification experiments of growth and drug sensitivity of Escherichia coli by the test method above.
In this experiment, streptomycin (aminoglycoside) being a concentration-dependent drug was used. 196 μL of a control sample of NBRC3301 was mixed with 4 μL of SM at a concentration of 25 mg/mL to prepare a sample for drug sensitivity evaluation at a SM concentration of 500 μg/mL (SM_500 μg/mL). Further, the amount of the SM to be added to the control sample was adjusted to prepare a sample for drug sensitivity evaluation at a SM concentration of 250 μg/mL (SM_250 μg/mL) and a sample for drug sensitivity evaluation at a SM concentration of 125 μg/mL (SM_125 μg/mL). Furthermore, in order to verify the frequency shift of a killed bacterium, a sample was prepared by subjecting 200 μL of a control sample to heat treatment at 98° C. for 30 minutes. […]
The samples thus prepared were introduced into different containers 60, respectively, and the frequency shift was measured for each sample. […] In analysis processing, frequency shifts of all the 1488 elements on array sensor 10 were measured every 10 seconds, the average value of the measured frequency shifts was calculated every 5 minutes, and extracted as the frequency shift at each timing of the measurement. […]

[3] = system: BCG (Mycobacterium bovis); settings: SM sample: 196 μL control sample + 4 μL SM at 25 mg/mL; 20 elements; 12 hours; 37° C.; FIG. 10(b)

SMILES | increase in the frequency shift with the lapse of time ([1]; 240 minutes, no capping solvent, compared with heat-treated killed bacteria, FIG. 12(a)) | time from start of measurement until which the frequency shift increased, decreasing trend thereafter (time-dependent action) ([1]; FIG. 12(a)) | frequency shift of each element in display image ([1]; after the lapse of 240 minutes, FIG. 12(c)) | frequency shift of each element in display image ([2]; SM 500 μg/mL, after the lapse of 60 minutes, FIG. 11(c)) | increase in the frequency shift with the lapse of time, compared with control sample ([2]; SM 500, 250 and 125 μg/mL, average of all 1488 elements, 60 minutes, no capping solvent, suppression greater at higher concentration, FIG. 11(a)) | growth of BCG reflected on the frequency shift of each element [3]
CCN1CCN(C(=O)N[C@@H](C(=O)N[C@@H]2C(=O)N3[C@@H]2SC(C)(C)[C@@H]3C(=O)O)c2ccccc2)C(=O)C1=O [PIPC, piperacillin] | the increase in the frequency shift was suppressed more than that in the case where heat treatment was performed | around 120 minutes | the frequency shifts of all the elements were uniformly suppressed low |  |  | 
[H]/N=C(/N)N[C@H]1[C@H](O)[C@@H](O)[C@H](O[C@@H]2O[C@@H](C)[C@](O)(C=O)[C@H]2O[C@@H]2O[C@@H](CO)[C@H](O)[C@@H](O)[C@@H]2NC)[C@@H](N/C(N)=N\[H])[C@@H]1O [SM, streptomycin] |  |  |  | the frequency shifts of all the elements were uniformly suppressed low | the increase in the frequency shift was suppressed | growth of BCG was suppressed
